Target: T1, GST-RIPK1 (recombinant GST-RIPK1 kinase domain (residues 1-327)) (Homo sapiens, UniProt Q13546)
T1 construct: recombinant GST-RIPK1 kinase domain (residues 1-327) enzyme; made in house; host or cells: baculovirus-transfected Sf21 insect cells
T1 sequence (Q13546 1-327): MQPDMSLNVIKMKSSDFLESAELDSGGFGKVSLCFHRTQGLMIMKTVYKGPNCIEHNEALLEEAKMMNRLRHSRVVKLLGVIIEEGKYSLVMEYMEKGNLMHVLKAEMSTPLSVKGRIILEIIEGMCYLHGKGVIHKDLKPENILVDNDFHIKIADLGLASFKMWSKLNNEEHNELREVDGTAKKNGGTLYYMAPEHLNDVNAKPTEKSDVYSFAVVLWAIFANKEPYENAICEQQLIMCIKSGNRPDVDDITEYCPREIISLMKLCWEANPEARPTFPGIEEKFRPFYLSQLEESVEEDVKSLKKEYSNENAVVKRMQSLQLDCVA
Experiment: RIPK1-ADP-Glo enzymatic assay
Type: biochemical
Conditions: 25 nM GST-RIPK1, 300 μM ATP, 3 μM dephosphorylated-MBP; 30 minutes pre-incubation, 150 minutes reaction; ten-point titration
Description: The enzymatic activity of RIPK1 is measured using an assay derived from ADP-Glo kit (Promega™), which provides a luminescent-based ADP detection system. Specifically, the ADP generated by RIPK1 kinase is proportionally detected as luminescent signals in a homogenous fashion. In this context, the assessment of the inhibitory effect of small molecules (EC50) is measured by the effectiveness of the compounds to inhibit the ATP to ADP conversion by RIPK1. In this assay, the potency (EC50) of each compound was determined from a ten-point (1:3 serial dilution; top compound concentration of 100000 nM) titration curve using the following outlined procedure. To each well of a white ProxiPlus 384 well-plate, […] of compound (1% DMSO in final assay volume of 3 μL) was dispensed, followed by the addition of 2 μL of 1× assay buffer (25 mM Hepes 7.3, 20 mM MgCl2, 50 mM NaCl, 1 mM DTT, 0.005% Tween20, and 0.02% BSA) containing 37.5 nM of GST-RIPK1 (recombinant GST-RIPK1 kinase domain (residues 1-327) enzyme produced from baculovirus-transfected Sf21 cells: MW=62 kDa). Plates were placed in an ambient temperature humidified chamber for a 30 minutes pre-incubation with compound. Subsequently, each reaction was initiated by the addition of 1 μL 1×assay buffer containing 900 μM ATP and […]. The final reaction in each well of 3 μL consists of 25 nM of GST-RIPK1, 300 μM ATP, and 3 μM dephosphorylated-MBP. Kinase reactions were allowed to proceed for 150 minutes prior to adding ADP-Glo reagents per Promega's outlined kit protocol. Dose-response curves were generated by plotting percent effect (% product conversion; Y-axis) vs. Log10 compound concentrations (X-axis). EC50 values were calculated using a non-linear regression, four-parameters sigmoidal dose-response model.

Compound	IC50 [µM]
CC1(C(=O)N2C[C@@H]3C[C@H]2c2cncc(C#N)c2O3)CCC1 [Compound 1-12, (2S,5S)-4-(1-methylcyclobutane-1-carbonyl)-2,3,4,5-tetrahydro-2,5-methanopyrido[3,4-f][1,4]oxazepine-9-carbonitrile]	0.047
N#Cc1cncc2c1O[C@H]1C[C@@H]2N(C(=O)C2(C(F)(F)F)CCCC2)C1 [Compound 1-13, (2S,5S)-4-[1-(trifluoromethyl)cyclopentane-1-carbonyl]-2,3,4,5-tetrahydro-2,5-methanopyrido[3,4-f][1,4]oxazepine-9-carbonitrile]	0.13
N#Cc1cncc2c1O[C@H]1C[C@@H]2N(C(=O)C2(C(F)F)CCCC2)C1 [Compound 1-14, (2S,5S)-4-[1-(difluoromethyl)cyclopentane-1-carbonyl]-2,3,4,5-tetrahydro-2,5-methanopyrido[3,4-f][1,4]oxazepine-9-carbonitrile]	0.051
CC(C)(CC(F)F)C(=O)N1C[C@@H]2C[C@H]1c1cncc(C#N)c1O2 [Compound 1-15, (2S,5S)-4-(4,4-difluoro-2,2-dimethylbutanoyl)-2,3,4,5-tetrahydro-2,5-methanopyrido[3,4-f][1,4]oxazepine-9-carbonitrile]	0.099
Cc1ncc2c(c1C#N)O[C@H]1C[C@@H]2N(C(=O)C(C)(C)C(F)F)C1 [Compound 1-18, (2S,5S)-4-(3,3-difluoro-2,2-dimethylpropanoyl)-8-methyl-2,3,4,5-tetrahydro-2,5-methanopyrido[3,4-f][1,4]oxazepine-9-carbonitrile]	0.084
N#Cc1cncc2c1O[C@H]1C[C@@H]2N(C(=O)C23CCC(C(F)F)(CC2)C3)C1 [Compound 1-19, (2S,5S)-4-[4-(difluoromethyl)bicyclo[2.2.1]heptane-1-carbonyl]-2,3,4,5-tetrahydro-2,5-metanopyrido[3,4-f][1,4]oxazepine-9-carbonitrile]	0.024
CC(C)(CC#N)C(=O)N1C[C@@H]2C[C@H]1c1cncc(C#N)c1O2 [Compound 1-20, (2S,5S)-4-(3-cyano-2,2-dimethylpropanoyl)-2,3,4,5-tetrahydro-2,5-methanopyrido[3,4-f][1,4]oxazepine-9-carbonitrile]	0.089
CCC(C#N)(CC)C(=O)N1C[C@@H]2C[C@H]1c1cncc(C#N)c1O2 [Compound 1-21, (2S,5S)-4-(2-cyano-2-ethylbutanoyl)-2,3,4,5-tetrahydro-2,5-methanopyrido[3,4-f][1,4]oxazepine-9-carbonitrile]	0.366
CC(F)(F)C1(C(=O)N2C[C@@H]3C[C@H]2c2cncc(C#N)c2O3)CCC1 [Compound 1-22, (2S,5S)-4-[1-(1,1-difluoroethyl)cyclobutane-1-carbonyl]-2,3,4,5-tetrahydro-2,5-methanopyrido[3,4-f][1,4]oxazepine-9-carbonitrile]	0.055
N#Cc1cncc2c1O[C@H]1C[C@@H]2N(C(=O)C2(C(F)F)CCC2)C1 [Compound 1-23, (2S,5S)-4-[1-(difluoromethyl)cyclobutane-1-carbonyl]-2,3,4,5-tetrahydro-2,5-methanopyrido[3,4-f][1,4]oxazepine-9-carbonitrile]	0.088
COC(C)(C)C(=O)N1C[C@@H]2C[C@H]1c1cncc(C#N)c1O2 [Compound 1-24, (2S,5S)-4-(2-methoxy-2-methylpropanoyl)-2,3,4,5-tetrahydro-2,5-methanopyrido[3,4-f][1,4]oxazepine-9-carbonitrile]	0.288
CC(C)(C(=O)N1C[C@@H]2C[C@H]1c1cncc(C#N)c1O2)C1CCC1 [Compound 1-25, (2S,5S)-4-(2-cyclobutyl-2-methylpropanoyl)-2,3,4,5-tetrahydro-2,5-methanopyrido[3,4-f][1,4]oxazepine-9-carbonitrile]	0.119
N#Cc1cncc2c1O[C@H]1C[C@@H]2N(C(=O)C23CCC(CC2)OC3)C1 [Compound 1-26, (2S,5S)-4-(2-oxabicyclo[2.2.2]octane-4-carbonyl)-2,3,4,5-tetrahydro-2,5-methanopyrido[3,4-f][1,4]oxazepine-9-carbonitrile]	0.313
CC(F)(F)C1(C(=O)N2C[C@@H]3C[C@H]2c2cncc(C#N)c2O3)CC1 [Compound 1-27, (2S,5S)-4-[1-(1,1-difluoroethyl)cyclopropane-1-carbonyl]-2,3,4,5-tetrahydro-2,5-methanopyrido[3,4-f][1,4]oxazepine-9-carbonitrile]	0.221
CC1(C(=O)N2C[C@@H]3C[C@H]2c2cncc(C#N)c2O3)CCC(F)(F)C1 (stereo partly drawn) [Compound 1-30, (2S,5S)-4-(3,3-difluoro-1-methylcyclopentane-1-carbonyl)-2,3,4,5-tetrahydro-2,5-methanopyrido[3,4-f][1,4]oxazepine-9-carbonitrile]	0.066
N#Cc1cncc2c1O[C@H]1C[C@@H]2N(C(=O)C23CCC(C2)C3)C1 [Compound 1-31, (2S,5S)-4-(bicyclo[2.1.1]hexane-1-carbonyl)-2,3,4,5-tetrahydro-2,5-methanopyrido[3,4-f][1,4]oxazepine-9-carbonitrile]	0.054
CC(C)C(C)(C)C(=O)N1C[C@@H]2C[C@H]1c1cncc(C#N)c1O2 [Compound 1-34, (2S,5S)-4-(2,2,3-trimethylbutanoyl)-2,3,4,5-tetrahydro-2,5-methanopyrido[3,4-f][1,4]oxazepine-9-carbonitrile]	0.024
CC(C)(CC(F)(F)F)C(=O)N1C[C@@H]2C[C@H]1c1cncc(C#N)c1O2 [Compound 1-35, (2S,5S)-4-(4,4,4-trifluoro-2,2-dimethylbutanoyl)-2,3,4,5-tetrahydro-2,5-methanopyrido[3,4-f][1,4]oxazepine-9-carbonitrile]	0.483
CC1(C(=O)N2C[C@@H]3C[C@H]2c2cncc(C#N)c2O3)CCC(F)(F)CC1 [Compound 1-36, (2S,5S)-4-(4,4-difluoro-1-methylcyclohexane-1-carbonyl)-2,3,4,5-tetrahydro-2,5-methanopyrido[3,4-f][1,4]oxazepine-9-carbonitrile]	0.973
CC(C)(CF)C(=O)N1C[C@@H]2C[C@H]1c1cncc(C#N)c1O2 [Compound 1-42, (2S,5S)-4-(3-fluoro-2,2-dimethylpropanoyl)-2,3,4,5-tetrahydro-2,5-methanopyrido[3,4-f][1,4]oxazepine-9-carbonitrile]	0.114
CCC(F)(F)C(C)(C)C(=O)N1C[C@@H]2C[C@H]1c1cncc(C#N)c1O2 [Compound 1-43, (2S,5S)-4-(3,3-difluoro-2,2-dimethylpentanoyl)-2,3,4,5-tetrahydro-2,5-methanopyrido[3,4-f][1,4]oxazepine-9-carbonitrile]	0.491
N#Cc1cncc2c1O[C@H]1C[C@@H]2N(C(=O)C2(CC(F)F)CCC2)C1 [Compound 1-44, (2S,5S)-4-[1-(2,2-difluoroethyl)cyclobutane-1-carbonyl]-2,3,4,5-tetrahydro-2,5-methanopyrido[3,4-f][1,4]oxazepine-9-carbonitrile]	0.254
N#Cc1cncc2c1O[C@H]1C[C@@H]2N(C(=O)C2CC3(CCCC3)C2)C1 [Compound 1-45, (2S,5S)-4-(spiro[3.4]octane-2-carbonyl)-2,3,4,5-tetrahydro-2,5-methanopyrido[3,4-f][1,4]oxazepine-9-carbonitrile]	0.33
CC1(C(=O)N2C[C@@H]3C[C@H]2c2cncc(C#N)c2O3)CC1C(F)(F)F (stereo partly drawn) [Compound 1-46, (2S,5S)-4-[1-methyl-2-(trifluoromethyl)cyclopropane-1-carbonyl]-2,3,4,5-tetrahydro-2,5-methanopyrido[3,4-f][1,4]oxazepine-9-carbonitrile]	0.078
N#Cc1cncc2c1O[C@H]1C[C@@H]2N(C(=O)C23CSC(C2)C3)C1 [Compound 1-47, (2S,5S)-4-(2-thiabicyclo[2.1.1]hexane-4-carbonyl)-2,3,4,5-tetrahydro-2,5-methanopyrido[3,4-f][1,4]oxazepine-9-carbonitrile]	0.022
N#Cc1cc(N2CCC(F)(C(=O)N3C[C@@H]4C[C@H]3c3cncc(C#N)c3O4)CC2)ncn1 [Compound 1-52, (2S,5S)-4-(1-(6-cyanopyrimidin-4-yl)-4-fluoropiperidine-4-carbonyl)-2,3,4,5-tetrahydro-2,5-methanopyrido[3,4-f][1,4]oxazepine-9-carbonitrile]	0.116

Reference: patent publication US20240228506A1, “RIPK1 INHIBITORS AND METHODS OF USE” (Merck Sharp & Dohme LLC, priority 2021, published 2024)
